The source of these data is patent publication US20250388574A1, “HETEROCYCLIC COMPOUNDS AS TRIGGERING RECEPTOR EXPRESSED ON MYELOID CELLS 2 AGONISTS AND METHODS OF USE” (AMGEN INC., priority 2020, published 2025).

Some results are limits rather than exact numbers.

This experiment concerns the target hTREM2 (Homo sapiens, UniProt Q9NZC2). The experiment is described as follows: Phospho-Syk AlphaScreen/AlphaLISA assay in TREM2 and DAP12 overexpressing HEK293 cells (Example A1). The following applies: HEK293 cells; for EC50: read-out: hTREM2 EC50. The class given is cell-based. More on the design: expressed in transfected cells. An outline of the steps:
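Single-cell-cloned HEK293 stably overexpressing TREM2 and DAP12, plated 20,000 cells/well for 20 h, then exposed to compounds (1% DMSO) 45 min at room temperature. Lysates probed for phospho-Syk by AlphaLISA sandwich (anti-pSyk, biotinylated anti-Syk); signal normalized to percent of control (100 nM anti-TREM2 antibody vs isotype) and fitted by 4-parameter logistic.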

Sequence of hTREM2 (Q9NZC2 19-230): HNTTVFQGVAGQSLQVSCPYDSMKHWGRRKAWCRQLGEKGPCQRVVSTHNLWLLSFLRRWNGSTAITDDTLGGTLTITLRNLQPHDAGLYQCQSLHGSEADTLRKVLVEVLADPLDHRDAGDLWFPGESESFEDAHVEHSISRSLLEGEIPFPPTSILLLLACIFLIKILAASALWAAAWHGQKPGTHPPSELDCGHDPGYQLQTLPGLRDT
Sequence of hTREM2 (O43914 22-113 partner): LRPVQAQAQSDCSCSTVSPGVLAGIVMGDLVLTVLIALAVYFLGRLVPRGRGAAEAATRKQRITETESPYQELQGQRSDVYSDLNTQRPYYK

For `COc1ccc([C@@H]2CN(c3cc4nc(C)n(C)c(=O)c4c(-c4ccc(Cl)cc4F)n3)CCO2)cc1` (single isomer, unassigned) [Example 79], the Emax entry is “+++ (Emax>200 and ≤300)”; the EC50 was 0.5 to 3 µM.

In the case of `Cc1nc2cc(N3CCO[C@@H](c4cnn(C)c4)C3)nc(-c3ccc(Cl)cc3F)c2c(=O)n1C` [Example 1, 5-(4-chloro-2-fluorophenyl)-2,3-dimethyl-7-((2S)-2-(1-methyl-1H-pyrazol-4-yl)-4-morpholinyl)pyrido[4,3-d]pyrimidin-4(3H)-one], the Emax entry is “+++ (Emax>200 and ≤300)”; the 50% effective concentration (EC50) lay in the range of 0.05 to 0.5 µM.

`Cc1nc2cc(N3CCO[C@@H](c4cnn(C5CN(C)C5)c4)C3)nc(-c3ccc(Cl)cc3F)c2c(=O)n1C` [Example 138, 5-(4-chloro-2-fluorophenyl)-2,3-dimethyl-7-((2S)-2-(1-(1-methyl-3-azetidinyl)-1H-pyrazol-4-yl)-4-morpholinyl)pyrido[4,3-d]pyrimidin-4(3H)-one]: the Emax result was “+++ (Emax>200 and ≤300)”; the EC50 is 0.05 to 0.5 µM.

With “ethyl (2S,4S)-4-(5-(4-chloro-2-fluorophenyl)-2,3-dimethyl-4-oxo-3,4-dihydropyrido[4,3-d]pyrimidin-7-yl)tetrahydro-2H-pyran-2-carboxylate and ethyl (2R,4R)-4-(5-(4-chloro-2-fluorophenyl)-2,3-dimethyl-4-oxo-3,4-dihydropyrido[4,3-d]pyrimidin-7-yl)tetrahydro-2H-pyran-2-carboxylate [Example 168]”, the Emax result is “+++ (Emax>200 and ≤300)”; the EC50 lay in the range of 3 to 100 µM.

Turning to `CCCn1c(C)nc2cc(N3CCO[C@H](c4ccnn4C)C3)nc(-c3ccc(Cl)cc3F)c2c1=O` [Example 154, 5-(4-chloro-2-fluorophenyl)-2-methyl-7-((2S)-2-(1-methyl-1H-pyrazol-5-yl)-4-morpholinyl)-3-propylpyrido[4,3-d]pyrimidin-4(3H)-one], the Emax result is “++++ (Emax>300)” and the concentration for a half-maximal effect (EC50) fell in the range of 3 to 100 µM.

Consider `Cc1nc2cc(N3CC[C@H](C4CC4)C3)nc(-c3ccc(Cl)cc3F)c2c(=O)n1C` [Example 207, (R)-5-(4-chloro-2-fluorophenyl)-7-(3-cyclopropylpyrrolidin-1-yl)-2,3-dimethylpyrido[4,3-d]pyrimidin-4(3H)-one], for which the Emax entry is “++ (Emax>100 and ≤200)”; the concentration for a half-maximal effect (EC50) was in the range of 3 to 100 µM.

Regarding `Cc1nc2cc(N3CC[C@H](C(F)F)C3)nc(-c3ccc(Cl)cc3F)c2c(=O)n1C` [Example 259, (S)-5-(4-chloro-2-fluorophenyl)-7-(3-(difluoromethyl)pyrrolidin-1-yl)-2,3-dimethylpyrido[4,3-d]pyrimidin-4(3H)-one], the Emax entry was “++ (Emax>100 and ≤200)”; the 50% effective concentration (EC50) fell in the range of 3 to 100 µM.

Turning to `Cc1nc2cc(N3CCO[C@H]([C@@H]4CCOC4)C3)nc(-c3ccc(Cl)cc3F)c2c(=O)n1C` (single isomer, unassigned) [Example 45], the EC50 is 0.5 to 3 µM.

`Cc1nc2cc(N3CCO[C@@](C)(C4CC4)C3)nc(-c3ccc(Cl)cc3F)c2c(=O)n1C` [Example 219, (S)-5-(4-chloro-2-fluorophenyl)-7-(2-cyclopropyl-2-methylmorpholino)-2,3-dimethylpyrido[4,3-d]pyrimidin-4(3H)-one]: the Emax entry is “++ (Emax>100 and ≤200)”; the EC50 is 0.5 to 3 µM.

`Cc1cn2c(n1)CN(c1cc3nc(C)n(C)c(=O)c3c(-c3ccc(Cl)cc3F)n1)CC2` [Example 234, 5-(4-chloro-2-fluorophenyl)-2,3-dimethyl-7-(2-methyl-5,6-dihydroimidazo[1,2-a]pyrazin-7(8H)-yl)pyrido[4,3-d]pyrimidin-4(3H)-one]: the Emax result is “++ (Emax>100 and ≤200)”; the EC50 was in the range of 3 to 100 µM.

Turning to `Cc1nc2cc(N3C[C@@H](C)O[C@H](c4ccsc4)C3)nc(-c3ccc(Cl)cc3F)c2c(=O)n1C` (single isomer, unassigned) [Example 74], the Emax entry was “+ (Emax>45 and ≤100)”; the half-maximal effective concentration (EC50) lay within 0.5 to 3 µM.

As for `Cc1nc2cc(N3CCO[C@@H](c4cnn(C)c4)C3)nc(-c3ccc(Cl)cn3)c2c(=O)n1C` [Example 212, (S)-5-(5-chloropyridin-2-yl)-2,3-dimethyl-7-(2-(1-methyl-1H-pyrazol-4-yl)morpholino)pyrido[4,3-d]pyrimidin-4(3H)-one], the Emax entry is recorded as “++++ (Emax>300)” and the EC50 was 3 to 100 µM.

In the case of `Cc1nc2cc(N3CCOC(c4ccnnc4)C3)nc(-c3ccc(Cl)cc3F)c2c(=O)n1C` (stereo not shown) [Example 50, 5-(4-chloro-2-fluorophenyl)-2,3-dimethyl-7-(2-(4-pyridazinyl)-4-morpholinyl)pyrido[4,3-d]pyrimidin-4(3H)-one], the Emax result was “++++ (Emax>300)” and the EC50 is 0.05 to 0.5 µM.

For `Cc1nc2cc(N3CCc4ncccc4C3)nc(-c3ccc(Cl)cc3F)c2c(=O)n1C` [Example 248, 5-(4-chloro-2-fluorophenyl)-7-(7,8-dihydro-1,6-naphthyridin-6(5H)-yl)-2,3-dimethylpyrido[4,3-d]pyrimidin-4(3H)-one], the Emax result is “+++ (Emax>200 and ≤300)”; the 50% effective concentration (EC50) lay in the range of 3 to 100 µM.

On to `Cc1nc2cc(N3CCO[C@H](c4cnn(C)c4)C3)nc(-c3ccc(Cl)cc3)c2c(=O)n1C` [Example 6, 5-(4-chlorophenyl)-2,3-dimethyl-7-((2R)-2-(1-methyl-1H-pyrazol-4-yl)-4-morpholinyl)pyrido[4,3-d]pyrimidin-4(3H)-one], for which the Emax result is “++ (Emax>100 and ≤200)”; the EC50 fell in the range of 0.5 to 3 µM.

For the compound `Cc1nc2cc(N3CCO[C@@](C)(c4cnn(C)c4)C3)nc(-c3ccc(Cl)cc3F)c2c(=O)n1C` [Example 224, (S)-5-(4-chloro-2-fluorophenyl)-2,3-dimethyl-7-(2-methyl-2-(1-methyl-1H-pyrazol-4-yl)morpholino)pyrido[4,3-d]pyrimidin-4(3H)-one], the Emax result is “+++ (Emax>200 and ≤300)”; the EC50 fell in the range of 0.5 to 3 µM.

As for `Cc1ccc(-c2nc(N3CCO[C@@H](c4cnn(C)c4)C3)cc3nc(C)n(C)c(=O)c23)c(F)c1` [Example 12, 5-(2-fluoro-4-methylphenyl)-2,3-dimethyl-7-((2S)-2-(1-methyl-1H-pyrazol-4-yl)-4-morpholinyl)pyrido[4,3-d]pyrimidin-4(3H)-one], the 50% effective concentration (EC50) lay within 0.05 to 0.5 µM.

For `Cc1nc2cc(N3CCO[C@@H](c4cnn(C)c4)C3)nc(-c3cc(F)c(Cl)cc3F)c2c(=O)n1C` [Example 11, 5-(4-chloro-2,5-difluorophenyl)-2,3-dimethyl-7-((2S)-2-(1-methyl-1H-pyrazol-4-yl)-4-morpholinyl)pyrido[4,3-d]pyrimidin-4(3H)-one], the Emax result is recorded as “++++ (Emax>300)” and the EC50 is 0.05 to 0.5 µM.

`CCCn1c(C)nc2cc(N3CCO[C@H](CC)C3)nc(-c3ccc(Cl)cc3F)c2c1=O` [Example 187, (R)-5-(4-chloro-2-fluorophenyl)-7-(2-ethylmorpholino)-2-methyl-3-propylpyrido[4,3-d]pyrimidin-4(3H)-one]: the Emax entry is “++++ (Emax>300)” and the half-maximal effective concentration (EC50) fell in the range of 0.5 to 3 µM.

`Cc1nc2cc(N3CCO[C@@H](c4cnn(C)c4)C3)nc(-c3cc(F)ccc3F)c2c(=O)n1C` [Example 228, (S)-5-(2,5-difluorophenyl)-2,3-dimethyl-7-(2-(1-methyl-1H-pyrazol-4-yl)morpholino)pyrido[4,3-d]pyrimidin-4(3H)-one]: the Emax entry was “+++ (Emax>200 and ≤300)”; the EC50 lay in the range of 0.5 to 3 µM.

Regarding `Cc1nc2cc(N3C[C@H](C)O[C@@H](c4ccsc4)C3)nc(-c3ccc(Cl)cc3F)c2c(=O)n1C` (single isomer, unassigned) [Example 71], the Emax entry was “++++ (Emax>300)” and the EC50 was 0.05 to 0.5 µM.

Turning to `Cc1nc2cc([C@H]3CCO[C@@H](c4cnn(C5CC5)c4)C3)nc(-c3ccc(Cl)cc3F)c2c(=O)n1C` (single isomer, unassigned) [Example 165], the Emax result was “+++ (Emax>200 and ≤300)”; the EC50 is less than 0.05 µM.

`Cc1nnc([C@H]2CN(c3cc4nc(C)n(C)c(=O)c4c(-c4ccc(Cl)cc4F)n3)CCO2)o1` [Example 271, (R)-5-(4-chloro-2-fluorophenyl)-2,3-dimethyl-7-(2-(5-methyl-1,3,4-oxadiazol-2-yl)morpholino)pyrido[4,3-d]pyrimidin-4(3H)-one]: the Emax entry is “+++ (Emax>200 and ≤300)”; the EC50 lay in the range of 0.05 to 0.5 µM.

`CCn1cc([C@@H]2CN(c3cc4nc(C)n(C)c(=O)c4c(-c4ccc(Cl)cc4F)n3)CCO2)cn1` (single isomer, unassigned) [Example 24]: the Emax entry is “++++ (Emax>300)” and the EC50 fell in the range of 0.05 to 0.5 µM.

For the compound `Cc1nc2cc(N3CCOC(C4CCC4)C3)nc(-c3ccc(Cl)cc3F)c2c(=O)n1C` (stereo not shown) [Example 33, 5-(4-chloro-2-fluorophenyl)-7-(2-cyclobutyl-4-morpholinyl)-2,3-dimethylpyrido[4,3-d]pyrimidin-4(3H)-one], the Emax result is “++++ (Emax>300)” and the EC50 was 0.5 to 3 µM.

As to `CCCn1c(C)nc2cc(N3CCO[C@@H](C(F)(F)F)C3)nc(-c3ccc(Cl)cc3F)c2c1=O` [Example 179, (R)-5-(4-chloro-2-fluorophenyl)-2-methyl-3-propyl-7-(2-(trifluoromethyl)morpholino)pyrido[4,3-d]pyrimidin-4(3H)-one], the Emax result is given as “++++ (Emax>300)” and the EC50 lay within 0.5 to 3 µM.

For the compound `CCn1c(C)nc2cc(N3CCO[C@H](c4noc(C)n4)C3)nc(-c3ccc(Cl)cc3F)c2c1=O` [Example 147, 5-(4-chloro-2-fluorophenyl)-3-ethyl-2-methyl-7-((2S)-2-(5-methyl-1,2,4-oxadiazol-3-yl)-4-morpholinyl)pyrido[4,3-d]pyrimidin-4(3H)-one], the Emax entry is “++++ (Emax>300)” and the 50% effective concentration (EC50) lay in the range of 0.05 to 0.5 µM.
